What was measured:
[1] = molecular target: T1, hENPP2 (UniProtKB/SwissProt Sequence ref Q13822) (Homo sapiens (Human), UniProt Q13822); assay: FS3 hENPP2 assay (fluorogenic substrate FS-3); type: biochemical; conditions: hENPP2, FS-3 as substrate
Protocol: Compound IC50 values are determined in a fluorescent hENPP2 (UniProtKB/SwissProt Sequence ref Q13822) biochemical assay using the fluorogenic autotaxin substrate FS-3 as substrate. FS-3 is a doubly labeled analog of LPC wherein the fluorophore is quenched through intramolecular energy transfer. Without hENPP2, the emission of the probe is quenched. If the substrate is hydrolyzed by hENPP2, the emission of the probe is not quenched anymore resulting in a fluorescence increase. Inhibition of hENPP2 by compounds will result in a decrease of the signal.
10 μL of a dilution series of compound, starting from 20 μM highest concentration, ⅕ dilution, is added to the wells. hENPP2 is used at a final concentration of 0.4 μg/mL or 0.64 μg/mL (it will be appreciated by the skilled person that the potency read out is independent of the enzyme concentration). The enzyme is diluted in 50 mM Tris-HCl pH 8.0, 250 mM NaCl, 5 mM KCl, 1 mM MgCl2, 1 mM CaCl2, 0.1% fatty acid free BSA in a total volume of 20 μL. Enzyme mixture is added to compounds and the resulting mixture is incubated for 30 min at room temperature under shaking. The reaction is started by the addition of 20 μL of 0.75 μM FS-3 diluted in the same buffer as described above and the mixture is incubated at 30° C. for 30 min. Fluorescence is read on the Envision (Excitation 485 nm, emission 520 nm).

[2] = molecular target: T1, hENPP2; assay: LPC hENPP2 assay (choline release, LPC as substrate); type: biochemical
Method in brief: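 Choline released from LPC by ENPP2 is quantified after stopping with stop-developer containing 0.6 U/mL choline oxidase, 0.6 U/mL peroxidase, 1.8 mM TOOS, 1.2 mM amino-antipyrine and 20 mM EGTA. Quinoneimine dye read at 555 nm after 30 min at room temperature.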

Structure (SMILES): CCc1nc2ccc(N3CCC(NS(C)(=O)=O)CC3)nn2c1N(C)c1nc(-c2ccc(F)cc2)cs1 [Cpd 83, N-(1-(2-ethyl-3-((4-(4-fluorophenyl)thiazol-2-yl)(methyl)amino)imidazo[1,2-b]pyridazin-6-yl)piperidin-4-yl)methane-sulfonamide]
- IC50 [1]: 0.01 to 25 nM
- IC50 [2]: > 1000 nM

Structure (SMILES): CCc1nc2ccc(N3CCCC(O)C3)nn2c1N(C)c1nc(-c2ccc(F)cc2)cs1 (centres unmarked) [Cpd 91, 1-(2-ethyl-3-((4-(4-fluorophenyl)thiazol-2-yl)(methyl)amino)imidazo[1,2-b]pyridazin-6-yl)piperidin-3-ol]
- IC50 [1]: 25 to 50 nM
- IC50 [2]: > 1000 nM

Structure (SMILES): CCc1nc2ccc(N3CCC(CO)CC3)nn2c1N(C)c1nc(-c2ccc(F)cc2)cs1 [Cpd 93, (1-(2-ethyl-3-((4-(4-fluorophenyl)thiazol-2-yl)(methyl)amino)imidazo[1,2-b]pyridazin-6-yl)piperidin-4-yl)methanol]
- IC50 [1]: 0.01 to 25 nM
- IC50 [2]: > 1000 nM

Structure (SMILES): CCc1nc2ccc(N3CCCC(CO)C3)nn2c1N(C)c1nc(-c2ccc(F)cc2)cs1 (centres unmarked) [Cpd 94, (1-(2-ethyl-3-((4-(4-fluorophenyl)thiazol-2-yl)(methyl)amino)imidazo[1,2-b]pyridazin-6-yl)piperidin-3-yl)methanol]
- IC50 [1]: 0.01 to 25 nM
- IC50 [2]: > 1000 nM

Structure (SMILES): CCc1nc2ccc(N3CCC(C(N)=O)CC3)nn2c1N(C)c1nc(-c2ccc(F)cc2)cs1 [Cpd 98, 1-(2-ethyl-3-((4-(4-fluorophenyl)thiazol-2-yl)(methyl)amino)imidazo[1,2-b]pyridazin-6-yl)piperidine-4-carboxamide]
- IC50 [1]: 0.01 to 25 nM
- IC50 [2]: > 1000 nM

Structure (SMILES): CCc1nc2ccc(N3CCCC(C(N)=O)C3)nn2c1N(C)c1nc(-c2ccc(F)cc2)cs1 (centres unmarked) [Cpd 99, 1-(2-ethyl-3-((4-(4-fluorophenyl)thiazol-2-yl)(methyl)amino)imidazo[1,2-b]pyridazin-6-yl)piperidine-3-carboxamide]
- IC50 [1]: 0.01 to 25 nM
- IC50 [2]: > 1000 nM

Structure (SMILES): CCc1nc2ccc(N3CCCC(CNC(=O)OC(C)(C)C)C3)nn2c1N(C)c1nc(-c2ccc(F)cc2)cs1 (centres unmarked) [Cpd 100, [1-(2-Ethyl-3-{[4-(4-fluoro-phenyl)-thiazol-2-yl]-methyl-amino}-imidazo[1,2-b]pyridazin-6-yl)-piperidin-3-ylmethyl]-carbamic acid tert-butyl ester]
- IC50 [1]: 0.01 to 25 nM
- IC50 [2]: > 1000 nM

Structure (SMILES): CCc1nc2ccc(N3CCCC(CN)C3)nn2c1N(C)c1nc(-c2ccc(F)cc2)cs1 (centres unmarked) [Cpd 101, N-(6-(3-(aminomethyl)piperidin-1-yl)-2-ethylimidazo[1,2-b]pyridazin-3-yl)-4-(4-fluorophenyl)-N-methylthiazol-2-amine]
- IC50 [1]: 25 to 50 nM
- IC50 [2]: > 1000 nM

Structure (SMILES): CCc1nc2ccc(N3CCCC(CNS(C)(=O)=O)C3)nn2c1N(C)c1nc(-c2ccc(F)cc2)cs1 (centres unmarked) [Cpd 102, N-((1-(2-ethyl-3-((4-(4-fluorophenyl)thiazol-2-yl)(methyl)amino)imidazo[1,2-b]pyridazin-6-yl)piperidin-3-yl)methyl) methanesulfonamide]
- IC50 [1]: 0.01 to 25 nM
- IC50 [2]: > 1000 nM

Structure (SMILES): CCc1nc2ccc(N3CCC(CC(=O)N(C)C)CC3)nn2c1N(C)c1nc(-c2ccc(F)cc2)cs1 [Cpd 108, 2-(1-(2-ethyl-3-((4-(4-fluorophenyl)thiazol-2-yl)(methyl)amino)imidazo[1,2-b]pyridazin-6-yl)piperidin-4-yl)-N,N-dimethylacetamide]
- IC50 [1]: 0.01 to 25 nM
- IC50 [2]: 500 to 1000 nM

Structure (SMILES): CCc1nc2ccc(N3CCC(N4CCOCC4)CC3)nn2c1N(C)c1nc(-c2ccc(F)cc2)cs1 [Cpd 109, N-(2-ethyl-6-(4-morpholino-piperidin-1-yl)imidazo[1,2-b]pyridazin-3-yl)-4-(4-fluorophenyl)-N-methylthiazol-2-amine]
- IC50 [1]: 0.01 to 25 nM
- IC50 [2]: 500 to 1000 nM

Structure (SMILES): CCc1nc2ccc(N3CCC(S(=O)(=O)NC4CC4)CC3)nn2c1N(C)c1nc(-c2ccc(F)cc2)cs1 [Cpd 114, N-cyclopropyl-1-(2-ethyl-3-((4-(4-fluorophenyl)thiazol-2-yl)(methyl)amino)imidazo[1,2-b]pyridazin-6-yl)piperidine-4-sulfonamide]
- IC50 [1]: 50 to 100 nM
- IC50 [2]: > 1000 nM

Structure (SMILES): CCc1nc2ccc(N3CCCN(C(C)=O)CC3)nn2c1N(C)c1nc(-c2ccc(F)cc2)cs1 [Cpd 115, 1-(4-(2-ethyl-3-((4-(4-fluorophenyl)thiazol-2-yl)(methyl)amino)imidazo[1,2-b]pyridazin-6-yl)-1,4-diazepan-1-yl)ethanone]
- IC50 [1]: 0.01 to 25 nM
- IC50 [2]: > 1000 nM

Structure (SMILES): CCc1nc2ccc(N3CCCN(S(C)(=O)=O)CC3)nn2c1N(C)c1nc(-c2ccc(F)cc2)cs1 [Cpd 116, N-(2-ethyl-6-(4-(methylsulfonyl)-1,4-diazepan-1-yl)imidazo[1,2-b]pyridazin-3-yl)-4-(4-fluorophenyl)-N-methylthiazol-2-amine]
- IC50 [1]: 0.01 to 25 nM
- IC50 [2]: > 1000 nM

Structure (SMILES): CCc1nc2ccc(N3CC4CN(C(=O)OC(C)(C)C)CC4C3)nn2c1N(C)c1nc(-c2ccc(F)cc2)cs1 (centres unmarked) [Cpd 122, tert-butyl 5-(2-ethyl-3-((4-(4-fluorophenyl)thiazol-2-yl)(methyl)amino)imidazo[1,2-b]pyridazin-6-yl)hexahydro-pyrrolo[3,4-c] pyrrole-2(1H)-carboxylate]
- IC50 [1]: 0.01 to 25 nM
- IC50 [2]: > 1000 nM

Structure (SMILES): CCc1nc2ccc(N3CC4CN(S(=O)(=O)CCCCl)CC4C3)nn2c1N(C)c1nc(-c2ccc(F)cc2)cs1 (centres unmarked) [Cpd 125, N-(6-(5-(3-chloropropyl-sulfonyl)-hexahydropyrrolo [3,4-c]pyrrol-2(1H)-yl)-2-ethylimidazo[1,2-b]pyridazin-3-yl)-4-(4-fluorophenyl)-N-methylthiazol-2-amine]
- IC50 [1]: 0.01 to 25 nM
- IC50 [2]: > 1000 nM

Structure (SMILES): CCc1nc2ccc(N3CC4CN(S(=O)(=O)CCCN(C)C)CC4C3)nn2c1N(C)c1nc(-c2ccc(F)cc2)cs1 (centres unmarked) [Cpd 126, N-(6-(5-(3-(dimethylamino)propylsulfonyl)hexahydropyrrolo [3,4-c]pyrrol-2(1H)-yl)-2-ethylimidazo[1,2-b]pyridazin-3-yl)-4-(4-fluorophenyl)-N-methylthiazol-2-amine]
- IC50 [1]: 0.01 to 25 nM
- IC50 [2]: 500 to 1000 nM

Structure (SMILES): CCc1nc2ccc(N3CCC(O)C3)nn2c1N(C)c1nc(-c2ccc(F)cc2)cs1 (centres unmarked) [Cpd 129, 1-(2-ethyl-3-((4-(4-fluorophenyl)thiazol-2-yl)(methyl)amino)imidazo[1,2-b]pyridazin-6-yl)pyrrolidin-3-ol]
- IC50 [1]: 0.01 to 25 nM
- IC50 [2]: > 1000 nM

Structure (SMILES): CCc1nc2ccc(N3CCC(N4CCSCC4)C3)nn2c1N(C)c1nc(-c2ccc(F)cc2)cs1 (centres unmarked) [Cpd 131, N-(2-ethyl-6-(3-thiomorpholino-pyrrolidin-1-yl)imidazo[1,2-b]pyridazin-3-yl)-4-(4-fluorophenyl)-N-methylthiazol-2-amine]
- IC50 [1]: 0.01 to 25 nM
- IC50 [2]: > 1000 nM

Structure (SMILES): CCc1nc2ccc(N3CCC(NC(=O)OC(C)(C)C)C3)nn2c1N(C)c1nc(-c2ccc(F)cc2)cs1 (centres unmarked) [Cpd 133, tert-butyl 1-(2-ethyl-3-((4-(4-fluorophenyl)thiazol-2-yl)(methyl)amino)imidazo[1,2-b]pyridazin-6-yl)pyrrolidin-3-ylcarbamate]
- IC50 [1]: 0.01 to 25 nM
- IC50 [2]: > 1000 nM

Structure (SMILES): CCc1nc2ccc(N3CCC(N)C3)nn2c1N(C)c1nc(-c2ccc(F)cc2)cs1 (centres unmarked) [Cpd 134, N-(6-(3-aminopyrrolidin-1-yl)-2-ethylimidazo[1,2-b]pyridazin-3-yl)-4-(4-fluorophenyl)-N-methylthiazol-2-amine]
- IC50 [1]: 0.01 to 25 nM
- IC50 [2]: > 1000 nM

Structure (SMILES): CCc1nc2ccc(N3CCC(NS(C)(=O)=O)C3)nn2c1N(C)c1nc(-c2ccc(F)cc2)cs1 (centres unmarked) [Cpd 137, N-(1-(2-ethyl-3-((4-(4-fluorophenyl)thiazol-2-yl)(methyl)amino)imidazo[1,2-b]pyridazin-6-yl)pyrrolidin-3-yl)methane-sulfonamide]
- IC50 [1]: 0.01 to 25 nM
- IC50 [2]: > 1000 nM

Structure (SMILES): CCc1nc2ccc(N3CCCC3CO)nn2c1N(C)c1nc(-c2ccc(F)cc2)cs1 (centres unmarked) [Cpd 142, (1-(2-ethyl-3-((4-(4-fluorophenyl)thiazol-2-yl)(methyl)amino)imidazo[1,2-b]pyridazin-6-yl)pyrrolidin-2-yl)methanol]
- IC50 [1]: 0.01 to 25 nM
- IC50 [2]: > 1000 nM

Structure (SMILES): CCc1nc2ccc(N3CCC(CO)C3)nn2c1N(C)c1nc(-c2ccc(F)cc2)cs1 (centres unmarked) [Cpd 143, (1-(2-ethyl-3-((4-(4-fluorophenyl)thiazol-2-yl)(methyl)amino)imidazo[1,2-b]pyridazin-6-yl)pyrrolidin-3-yl)methanol]
- IC50 [1]: 0.01 to 25 nM
- IC50 [2]: > 1000 nM

Structure (SMILES): CCc1nc2ccc(N3CCC(N4CCN(CCCO)CC4)C3)nn2c1N(C)c1nc(-c2ccc(F)cc2)cs1 (centres unmarked) [Cpd 145, 3-(4-(1-(2-ethyl-3-((4-(4-fluorophenyl)thiazol-2-yl)(methyl)amino)imidazo[1,2-b]pyridazin-6-yl)pyrrolidin-3-yl)piperazin-1-yl)propan-1-ol]
- IC50 [1]: 0.01 to 25 nM
- IC50 [2]: 500 to 1000 nM
